In ChEMBL document CHEMBL1141452, “Advances in development of dopaminergic aporphinoids” (J Med Chem, 2007):

Tests used:
Rattus norvegicus [1] = experiment: Displacement of [3H]SCH-23390 from rat dopamine D1 receptor at 40 mg/kg, ip; assay type: functional; conditions: route intraperitoneal
Rattus norvegicus [2] = experiment: Inhibition of apomorphine-induced penile erection in rat at 40 mg/kg, ip; assay type: functional; parameters: scale not given: the % may be the effect or the level left; conditions: route intraperitoneal
Rattus norvegicus [3] = experiment: Inhibition of apomorphine-induced yawning in rat at 40 mg/kg, ip; assay type: functional; parameters: scale not given: the % may be the effect or the level left; conditions: route intraperitoneal
Rattus norvegicus [4] = experiment: Displacement of [3H]raclopride from rat dopamine D2 receptor at 40 mg/kg, ip; assay type: functional; conditions: route intraperitoneal
D(1A) dopamine receptor = D(1A) dopamine receptor (Rattus norvegicus, UniProt P18901); experiment: Displacement of [3H]SCH-23390 from rat dopamine D1 receptor
D(1A) dopamine receptor, sequence (P18901 whole entry): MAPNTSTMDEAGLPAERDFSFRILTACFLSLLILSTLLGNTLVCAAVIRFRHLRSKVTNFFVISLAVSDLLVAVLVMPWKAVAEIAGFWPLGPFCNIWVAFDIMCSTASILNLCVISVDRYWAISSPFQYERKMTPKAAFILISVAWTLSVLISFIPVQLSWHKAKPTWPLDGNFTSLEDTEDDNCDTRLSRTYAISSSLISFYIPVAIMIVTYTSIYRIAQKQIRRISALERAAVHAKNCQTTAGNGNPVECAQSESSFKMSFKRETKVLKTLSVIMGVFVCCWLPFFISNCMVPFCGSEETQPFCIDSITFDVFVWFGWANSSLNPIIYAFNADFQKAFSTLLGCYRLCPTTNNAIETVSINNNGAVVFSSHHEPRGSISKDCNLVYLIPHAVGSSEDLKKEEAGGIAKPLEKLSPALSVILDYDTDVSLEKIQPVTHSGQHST

D(2) dopamine receptor = D(2) dopamine receptor (Rattus norvegicus, UniProt P61169); experiment: Displacement of [3H]raclopride from rat dopamine D2 receptor
D(2) dopamine receptor, sequence (P61169 whole entry): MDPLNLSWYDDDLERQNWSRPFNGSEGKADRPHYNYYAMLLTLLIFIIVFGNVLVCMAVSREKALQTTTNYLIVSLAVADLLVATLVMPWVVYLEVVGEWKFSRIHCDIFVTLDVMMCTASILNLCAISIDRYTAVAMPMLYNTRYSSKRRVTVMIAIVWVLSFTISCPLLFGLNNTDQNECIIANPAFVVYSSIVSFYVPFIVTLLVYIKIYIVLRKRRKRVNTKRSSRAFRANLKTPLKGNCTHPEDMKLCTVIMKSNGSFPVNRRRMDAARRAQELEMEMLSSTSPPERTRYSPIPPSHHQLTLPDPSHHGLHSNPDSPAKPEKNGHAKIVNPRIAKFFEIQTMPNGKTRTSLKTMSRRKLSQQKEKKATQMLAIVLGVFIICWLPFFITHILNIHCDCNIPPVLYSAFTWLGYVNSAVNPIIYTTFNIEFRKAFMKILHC

PC-12 = experiment: Reduction of dopamine level in catecholamine-inducing rat PC12 cells; assay type: functional, cell-based
[5] = target: T1, 5-hydroxytryptamine receptor 1A (Rattus norvegicus, UniProt P19327); experiment: Displacement of [3H]8-OH-DPAT from rat 5HT1A receptor
T1 sequence (P19327 whole entry): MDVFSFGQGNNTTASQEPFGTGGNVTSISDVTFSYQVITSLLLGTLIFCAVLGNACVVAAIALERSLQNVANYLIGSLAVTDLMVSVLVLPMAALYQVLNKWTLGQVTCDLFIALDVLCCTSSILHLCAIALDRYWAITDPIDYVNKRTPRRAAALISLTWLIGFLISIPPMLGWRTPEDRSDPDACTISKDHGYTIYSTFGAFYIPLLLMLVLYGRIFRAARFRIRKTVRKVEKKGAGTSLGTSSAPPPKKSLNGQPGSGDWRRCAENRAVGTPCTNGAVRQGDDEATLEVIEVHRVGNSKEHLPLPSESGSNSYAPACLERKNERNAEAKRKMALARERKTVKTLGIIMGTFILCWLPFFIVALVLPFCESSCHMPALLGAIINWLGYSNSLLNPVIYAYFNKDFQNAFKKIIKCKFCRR

[6] = target: 5-hydroxytryptamine receptor 7 (Homo sapiens, UniProt P34969); experiment: Binding affinity at 5HT7 receptor
5-hydroxytryptamine receptor 7, sequence (P34969 whole entry): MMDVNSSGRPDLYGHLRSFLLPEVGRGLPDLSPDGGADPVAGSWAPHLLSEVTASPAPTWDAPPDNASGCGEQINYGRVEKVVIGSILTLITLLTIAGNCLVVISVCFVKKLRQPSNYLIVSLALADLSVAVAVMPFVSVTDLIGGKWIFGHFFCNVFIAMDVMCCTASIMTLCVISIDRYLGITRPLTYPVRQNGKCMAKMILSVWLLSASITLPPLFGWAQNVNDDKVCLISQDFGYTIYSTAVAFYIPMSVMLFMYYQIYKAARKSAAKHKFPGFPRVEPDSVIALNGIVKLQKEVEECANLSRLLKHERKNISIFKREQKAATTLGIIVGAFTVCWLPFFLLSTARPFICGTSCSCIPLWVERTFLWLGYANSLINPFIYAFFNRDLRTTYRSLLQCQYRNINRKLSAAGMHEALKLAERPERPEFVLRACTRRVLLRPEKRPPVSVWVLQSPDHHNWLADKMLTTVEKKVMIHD

[7] = target: 5-hydroxytryptamine receptor 7 (Rattus norvegicus) (UniProt P32305); experiment: Displacement of [3H]5-HT from rat 5-HT7 receptor
5-hydroxytryptamine receptor 7 (Rattus norvegicus), sequence (P32305 whole entry, looked up): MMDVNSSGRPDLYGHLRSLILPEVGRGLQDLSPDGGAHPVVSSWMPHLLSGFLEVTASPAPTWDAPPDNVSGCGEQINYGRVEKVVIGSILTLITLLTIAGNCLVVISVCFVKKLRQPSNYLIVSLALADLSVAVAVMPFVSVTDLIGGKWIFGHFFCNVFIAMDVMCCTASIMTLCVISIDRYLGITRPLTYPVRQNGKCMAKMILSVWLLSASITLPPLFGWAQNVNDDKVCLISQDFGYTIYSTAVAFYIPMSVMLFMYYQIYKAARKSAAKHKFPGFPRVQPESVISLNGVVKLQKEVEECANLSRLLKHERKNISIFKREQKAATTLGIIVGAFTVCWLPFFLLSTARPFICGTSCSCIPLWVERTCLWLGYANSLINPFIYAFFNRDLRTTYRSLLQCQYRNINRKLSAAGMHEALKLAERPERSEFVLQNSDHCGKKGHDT

Tyrosine 3-monooxygenase = Tyrosine 3-monooxygenase (Homo sapiens, UniProt P07101); experiment: Inhibition of tyrosine hydroxylase
Tyrosine 3-monooxygenase, sequence (P07101 whole entry): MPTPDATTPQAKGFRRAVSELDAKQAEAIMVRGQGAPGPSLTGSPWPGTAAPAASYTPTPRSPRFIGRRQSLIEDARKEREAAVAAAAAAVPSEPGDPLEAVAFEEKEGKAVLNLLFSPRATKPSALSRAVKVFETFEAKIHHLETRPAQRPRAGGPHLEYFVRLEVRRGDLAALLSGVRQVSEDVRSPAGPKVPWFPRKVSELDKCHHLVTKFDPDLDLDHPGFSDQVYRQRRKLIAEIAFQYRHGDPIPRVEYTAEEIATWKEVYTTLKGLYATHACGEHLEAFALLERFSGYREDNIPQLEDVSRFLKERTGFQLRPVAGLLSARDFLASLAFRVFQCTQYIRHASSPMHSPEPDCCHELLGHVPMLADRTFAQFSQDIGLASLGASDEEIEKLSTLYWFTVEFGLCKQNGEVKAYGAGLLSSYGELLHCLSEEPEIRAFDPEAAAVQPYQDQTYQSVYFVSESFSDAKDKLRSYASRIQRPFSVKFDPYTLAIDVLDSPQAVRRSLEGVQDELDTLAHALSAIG

[8] = Inhibition of rat midbrain dopaminergic neuron firing; assay type: functional; conditions: read-out: ID50 (the source's name)
[9] = target: Sodium-dependent dopamine transporter (Rattus norvegicus, UniProt P23977); experiment: Displacement of [3H]DA from rat DAT
Sodium-dependent dopamine transporter, sequence (P23977 whole entry): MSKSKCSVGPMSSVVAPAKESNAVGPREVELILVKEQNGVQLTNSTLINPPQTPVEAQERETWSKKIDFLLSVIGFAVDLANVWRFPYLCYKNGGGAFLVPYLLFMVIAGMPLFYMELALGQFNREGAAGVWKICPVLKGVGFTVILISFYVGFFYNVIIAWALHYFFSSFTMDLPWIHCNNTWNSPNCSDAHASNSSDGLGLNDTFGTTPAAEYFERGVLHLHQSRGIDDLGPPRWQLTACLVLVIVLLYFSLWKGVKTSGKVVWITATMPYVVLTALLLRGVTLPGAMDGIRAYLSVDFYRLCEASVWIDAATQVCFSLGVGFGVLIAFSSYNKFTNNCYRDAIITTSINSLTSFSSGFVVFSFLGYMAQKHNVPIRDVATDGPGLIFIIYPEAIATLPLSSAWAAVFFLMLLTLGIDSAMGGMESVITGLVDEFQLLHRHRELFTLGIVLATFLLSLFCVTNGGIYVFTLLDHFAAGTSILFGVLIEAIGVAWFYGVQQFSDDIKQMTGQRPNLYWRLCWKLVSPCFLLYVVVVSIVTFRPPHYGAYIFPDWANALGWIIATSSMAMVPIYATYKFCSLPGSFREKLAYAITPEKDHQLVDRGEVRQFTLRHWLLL

Cerebrum = experiment: Inhibition of lipid peroxidation in rat cerebrum; assay type: functional, tissue-based
[10] = target: Tyrosine 3-monooxygenase (Rattus norvegicus) (UniProt P04177); experiment: Inhibition of tyrosine hydroxylase
Tyrosine 3-monooxygenase (Rattus norvegicus), sequence (P04177 whole entry, looked up): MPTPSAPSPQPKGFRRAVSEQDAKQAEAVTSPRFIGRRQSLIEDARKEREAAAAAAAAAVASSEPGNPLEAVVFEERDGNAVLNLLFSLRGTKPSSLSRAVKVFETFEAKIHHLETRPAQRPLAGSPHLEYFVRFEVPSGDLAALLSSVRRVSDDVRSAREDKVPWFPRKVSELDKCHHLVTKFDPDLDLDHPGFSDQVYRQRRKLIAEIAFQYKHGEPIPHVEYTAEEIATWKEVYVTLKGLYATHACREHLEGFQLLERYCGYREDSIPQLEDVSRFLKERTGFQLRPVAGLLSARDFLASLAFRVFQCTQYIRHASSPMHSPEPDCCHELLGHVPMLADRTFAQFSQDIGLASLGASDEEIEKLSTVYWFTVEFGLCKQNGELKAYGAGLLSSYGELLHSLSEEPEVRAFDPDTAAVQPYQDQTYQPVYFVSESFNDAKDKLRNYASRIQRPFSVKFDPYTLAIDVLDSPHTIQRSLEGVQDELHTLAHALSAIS

COc1cc2c(cc1O)C[C@H]1c3c(cc(O)c(OC)c3-2)CCN1C [BOLDINE]
Activity (Rattus norvegicus [1]): 25% | Activity (Rattus norvegicus [2]): 50% | Activity (Rattus norvegicus [3]): 50%

COc1cc2c(cc1OC)-c1c(OC)c(OC)cc3c1[C@H](C2)N(C)CC3 [GLAUCINE]
Activity (Rattus norvegicus [1]): 50% | Activity (Rattus norvegicus [4]): 50% | Activity (Rattus norvegicus [2]): 50% | Activity (Rattus norvegicus [3]): 50% | Ki (D(1A) dopamine receptor): 2900 nM | Ki (D(2) dopamine receptor): 2800 nM

COc1ccc2c(c1O)-c1c3c(cc4c1[C@H](C2)N(C)CC4)OCO3 [(S)-BULBOCAPNINE]
IC50 (PC-12): 27000 nM

CN1CCc2ccc3[nH]c(=O)c4cccc5c4c3c2[C@H]1C5
Ki [5]: 180 nM | Ki [6]: 55 nM | Ki [7]: 55 nM | Ki (D(2) dopamine receptor): 55 nM

CCCN1CCc2cccc3c2[C@@H]1Cc1cccc(O)c1-3
IC50 (Tyrosine 3-monooxygenase): 87000 nM

CCCN1CCc2cccc3c2[C@H]1Cc1cccc(O)c1-3
ED50 [8]: 0.0047 µmol/kg | IC50 (Tyrosine 3-monooxygenase): 42000 nM

CN1CCc2cc3c(c4c2C1Cc1cccc(O)c1-4)OCO3 (stereo unspecified) [PUKATEINE]
IC50 [9]: 46000 nM | IC50 (Cerebrum): 15000 nM | IC50 (D(1A) dopamine receptor): 400 nM | IC50 (D(2) dopamine receptor): 600 nM

CN1CCc2cccc3c2[C@H]1Cc1ccc(O)c(O)c1-3 [APOMORPHINE]
ED50 [8]: 0.018 µmol/kg

CCCN1CCc2cccc3c2[C@@H]1Cc1ccc(O)c(O)c1-3
ED50 [8]: 1.6 µmol/kg | IC50 [10]: 1000 nM

CCCN1CCc2cccc3c2[C@H]1Cc1ccc(O)c(O)c1-3 [R-N-PROPYLNORAPOMORPHINE]
ED50 [8]: 0.002 µmol/kg | IC50 [10]: 300 nM
